Assay results from patent publication US20110137633A1, “ANTI-VIRAL COMPOUNDS AND METHODS OF IDENTIFYING THE SAME” (ABBOTT LABORATORIES, priority 2009, published 2011).

Experiments:
HCV 1a replicon = HCV 1a replicon assay (luciferase reporter); type: cell-based, Hepatitis C virus genotype 1a-H77; conditions: in vitro, relative to compound of FIG. 2A
HCV 1b replicon = HCV 1b replicon assay (luciferase reporter); type: cell-based, Hepatitis C virus genotype 1b-Con1; conditions: in vitro, relative to compound of FIG. 2A

For CC(C)c1ccc2c(Nc3cc(C(=O)N[C@@H](C)c4ccccc4)ccc3Sc3ccc(N)cc3)ncnc2n1 [compound of FIG. 2B], the “increase in HCV replication inhibitory activities compared to the compound of FIG. 2A” value (HCV 1a replicon) was “over 1,000 fold” and the “increase in HCV replication inhibitory activities compared to the compound of FIG. 2A” value (HCV 1b replicon) was “over 600 fold”.
